Experimental data from patent US11000033B2, “Ketone or oxime compound, and herbicide” (NISSAN CHEMICAL CORPORATION, priority 2014, dated 2021).

Tests used:
Type in all cases: in vivo
[1] = test system: Echinochloa oryzacola Vasing.; assay: Test Example 2: herbicidal activity, application during weed generation in submerged conditions (symbol A); details: Table 23; application herbicide amount 320 g/ha; grade 0-5 by criteria of Test Example 1
Method in brief: (§1)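 Visual herbicidal ratings, taken three weeks after dosing, reflect post-emergence water-surface application to seedlings at one to two leaves. Conditions: co-sown weeds in alluvial soil flooded to 4 cm, greenhouse held at 25° C. to 30° C.; compound given as water-diluted emulsion at a fixed herbicide amount.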

Scirpus juncoides = assay: Test Example 2: herbicidal activity, application during weed generation in submerged conditions (symbol B); details: Table 23; application herbicide amount 320 g/ha; grade 0-5 by criteria of Test Example 1
Method in brief: as §1

[2] = test system: Echinochloa crus-galli var. crus-galli; assay: Test Example 3: herbicidal effect by foliage application, Wagner pot (symbol H); details: application herbicide amount 320 g/ha
Method in brief: (§2)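 Herbicidal activity was rated three weeks after a foliar spray of diluted emulsion concentrate, applied at a predetermined dose to plants grown for 14 days from seed in waterlogged alluvial soil within a 25–30 °C greenhouse.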

Leptochloa chinensis = assay: Test Example 3: herbicidal effect by foliage application, Wagner pot (symbol D); details: application herbicide amount 320 g/ha
Method in brief: as §2

Digitaria ciliaris [3] = assay: Test Example 4: herbicidal effect by soil treatment (symbol F); details: application herbicide amount 320 g/ha
Method in brief: (§3)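 Seeds were sown in sterilized diluvial soil, covered with about 1.5 cm of soil, and the soil surface was sprayed with a water-diluted emulsion of the compound at a predetermined rate. Plants grew in a greenhouse at 25° C. to 30° C.; effects were scored visually 3 weeks after application.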

[4] = test system: Echinochloa crus-galli var. crus-galli; assay: Test Example 4: herbicidal effect by soil treatment (symbol H); details: application herbicide amount 320 g/ha
Method in brief: as §3

Lolium multiflorum Lam. = assay: Test Example 4: herbicidal effect by soil treatment (symbol K); details: application herbicide amount 320 g/ha
Method in brief: as §3

Apera spica-venti = assay: Test Example 4: herbicidal effect by soil treatment (symbol L); details: application herbicide amount 320 g/ha
Method in brief: as §3

Abutilon theophrasti = assay: Test Example 4: herbicidal effect by soil treatment (symbol M); details: application herbicide amount 320 g/ha
Method in brief: as §3

Amaranthus retroflexus [5] = assay: Test Example 4: herbicidal effect by soil treatment (symbol N); details: application herbicide amount 320 g/ha
Method in brief: as §3

rapeseed = assay: Test Example 4: effect on crop by soil treatment (symbol g); details: application herbicide amount 320 g/ha
Method in brief: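 Greenhouse culture at 25° C. to 30° C. followed sowing of seed in spots on sterilized diluvial soil with a soil cover close to 1.5 cm thick.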

Digitaria ciliaris [6] = assay: Test Example 5: herbicidal effect by foliage application, plastic box (symbol F); details: 320 g/ha, 3 weeks after application
Method in brief: (§4)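 Seeds were sown in sterilized diluvial soil, covered with about 1.5 cm of soil and grown 14 days in a greenhouse at 25° C. to 30° C. An emulsifiable formulation diluted in water to a set rate was sprayed over foliage, and injury was scored 3 weeks later.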

Avena fatua = assay: Test Example 5: herbicidal effect by foliage application, plastic box (symbol I); details: 320 g/ha, 3 weeks after application
Method in brief: as §4

Amaranthus retroflexus [7] = assay: Test Example 5: herbicidal effect by foliage application, plastic box (symbol N); details: 320 g/ha, 3 weeks after application
Method in brief: as §4

Chenopodium album = assay: Test Example 5: herbicidal effect by foliage application, plastic box (symbol O); details: 320 g/ha, 3 weeks after application
Method in brief: as §4

Stellaria media = assay: Test Example 5: herbicidal effect by foliage application, plastic box (symbol P); details: 320 g/ha, 3 weeks after application
Method in brief: as §4

Veronica persica = assay: Test Example 5: herbicidal effect by foliage application, plastic box (symbol R); details: 320 g/ha, 3 weeks after application
Method in brief: as §4

rice plant = assay: Test Example 5: effect on crop by foliage application, plastic box (symbol b); details: 320 g/ha, 3 weeks after application
Method in brief: (§5)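 Soil: sterilized diluvial. Container: plastic box, 21 × 13 cm, 7 cm deep. Sowing: spot-like, ~1.5 cm cover. Growth: greenhouse, 25° C. to 30° C.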

wheat = assay: Test Example 5: effect on crop by foliage application, plastic box (symbol e); details: 320 g/ha, 3 weeks after application
Method in brief: as §5

beet = assay: Test Example 5: effect on crop by foliage application, plastic box (symbol f); details: 320 g/ha, 3 weeks after application
Method in brief: as §5

Cc1cc(C)c(C2=C(O)CC(CC(=O)C3CCCC3)C2=O)c(C)c1 (stereo not drawn) [2-028]
Herbicidal effect grade, A: Echinochloa oryzacola Vasing. [1]: 3 (Herbicidal ratio of 40% or higher and lower than 70%)
Herbicidal effect grade, B: Scirpus juncoides (Scirpus juncoides): 0 (Herbicidal ratio of 5% or lower (almost no effect))
herbicidal effect on H (Echinochloa crus-galli var. crus-galli), grade 0-5 [2]: 5 (Herbicidal ratio of 90% or more (almost completely withered))
herbicidal effect on D (Leptochloa chinensis), grade 0-5 (Leptochloa chinensis): 5 (Herbicidal ratio of 90% or more (almost completely withered))
F: Digitaria ciliaris, herbicidal effect grade (Digitaria ciliaris [3]): 4 (Herbicidal ratio of 70% or higher and lower than 90%)
H: Echinochloa crus-galli var. crus-galli, herbicidal effect grade [4]: 1 (Herbicidal ratio of 5% or higher and lower than 20%)
K: Lolium multiflorum Lam., herbicidal effect grade (Lolium multiflorum Lam.): 5 (Herbicidal ratio of 90% or more (almost completely withered))
L: Apera spica-venti, herbicidal effect grade (Apera spica-venti): 2 (Herbicidal ratio of 20% or higher and lower than 40%)
M: Abutilon theophrasti, herbicidal effect grade (Abutilon theophrasti): 1 (Herbicidal ratio of 5% or higher and lower than 20%)
N: Amaranthus retroflexus, herbicidal effect grade (Amaranthus retroflexus [5]): 0 (Herbicidal ratio of 5% or lower (almost no effect))
g: rapeseed, effect on crop grade (rapeseed): 0 (Herbicidal ratio of 5% or lower (almost no effect))
F: Digitaria ciliaris, herbicidal effect grade (Digitaria ciliaris [6]): 2 (Herbicidal ratio of 20% or higher and lower than 40%)
I: Avena fatua, herbicidal effect grade (Avena fatua): 0 (Herbicidal ratio of 5% or lower (almost no effect))
N: Amaranthus retroflexus, herbicidal effect grade (Amaranthus retroflexus [7]): 0 (Herbicidal ratio of 5% or lower (almost no effect))
O: Chenopodium album, herbicidal effect grade (Chenopodium album): 0 (Herbicidal ratio of 5% or lower (almost no effect))
P: Stellaria media, herbicidal effect grade (Stellaria media): 0 (Herbicidal ratio of 5% or lower (almost no effect))
R: Veronica persica, herbicidal effect grade (Veronica persica): 0 (Herbicidal ratio of 5% or lower (almost no effect))
b: directly sowed rice plant, effect on crop grade (rice plant): 5 (Herbicidal ratio of 90% or more (almost completely withered))
e: wheat, effect on crop grade (wheat): 0 (Herbicidal ratio of 5% or lower (almost no effect))
f: beet, effect on crop grade (beet): 0 (Herbicidal ratio of 5% or lower (almost no effect))

Cc1cc(C)c(C2=C(O)CC(CC(=O)C3CCCCC3)C2=O)c(C)c1 (stereo not drawn) [2-030]
Herbicidal effect grade, A: Echinochloa oryzacola Vasing. [1]: 3 (Herbicidal ratio of 40% or higher and lower than 70%)
Herbicidal effect grade, B: Scirpus juncoides (Scirpus juncoides): 0 (Herbicidal ratio of 5% or lower (almost no effect))
herbicidal effect on H (Echinochloa crus-galli var. crus-galli), grade 0-5 [2]: 4 (Herbicidal ratio of 70% or higher and lower than 90%)
herbicidal effect on D (Leptochloa chinensis), grade 0-5 (Leptochloa chinensis): 5 (Herbicidal ratio of 90% or more (almost completely withered))
F: Digitaria ciliaris, herbicidal effect grade (Digitaria ciliaris [3]): 4 (Herbicidal ratio of 70% or higher and lower than 90%)
H: Echinochloa crus-galli var. crus-galli, herbicidal effect grade [4]: 1 (Herbicidal ratio of 5% or higher and lower than 20%)
K: Lolium multiflorum Lam., herbicidal effect grade (Lolium multiflorum Lam.): 4 (Herbicidal ratio of 70% or higher and lower than 90%)
L: Apera spica-venti, herbicidal effect grade (Apera spica-venti): 4 (Herbicidal ratio of 70% or higher and lower than 90%)
M: Abutilon theophrasti, herbicidal effect grade (Abutilon theophrasti): 0 (Herbicidal ratio of 5% or lower (almost no effect))
N: Amaranthus retroflexus, herbicidal effect grade (Amaranthus retroflexus [5]): 0 (Herbicidal ratio of 5% or lower (almost no effect))
g: rapeseed, effect on crop grade (rapeseed): 0 (Herbicidal ratio of 5% or lower (almost no effect))
F: Digitaria ciliaris, herbicidal effect grade (Digitaria ciliaris [6]): 4 (Herbicidal ratio of 70% or higher and lower than 90%)
I: Avena fatua, herbicidal effect grade (Avena fatua): 1 (Herbicidal ratio of 5% or higher and lower than 20%)
N: Amaranthus retroflexus, herbicidal effect grade (Amaranthus retroflexus [7]): 0 (Herbicidal ratio of 5% or lower (almost no effect))
O: Chenopodium album, herbicidal effect grade (Chenopodium album): 0 (Herbicidal ratio of 5% or lower (almost no effect))
P: Stellaria media, herbicidal effect grade (Stellaria media): 0 (Herbicidal ratio of 5% or lower (almost no effect))
R: Veronica persica, herbicidal effect grade (Veronica persica): 1 (Herbicidal ratio of 5% or higher and lower than 20%)
b: directly sowed rice plant, effect on crop grade (rice plant): 5 (Herbicidal ratio of 90% or more (almost completely withered))
e: wheat, effect on crop grade (wheat): 0 (Herbicidal ratio of 5% or lower (almost no effect))
f: beet, effect on crop grade (beet): 0 (Herbicidal ratio of 5% or lower (almost no effect))

C=CC(=O)CC1CC(O)=C(c2c(C)cc(C)cc2C)C1=O (stereo not drawn) [2-031]
Herbicidal effect grade, A: Echinochloa oryzacola Vasing. [1]: 4 (Herbicidal ratio of 70% or higher and lower than 90%)
Herbicidal effect grade, B: Scirpus juncoides (Scirpus juncoides): 0 (Herbicidal ratio of 5% or lower (almost no effect))
herbicidal effect on H (Echinochloa crus-galli var. crus-galli), grade 0-5 [2]: 5 (Herbicidal ratio of 90% or more (almost completely withered))
herbicidal effect on D (Leptochloa chinensis), grade 0-5 (Leptochloa chinensis): 5 (Herbicidal ratio of 90% or more (almost completely withered))
F: Digitaria ciliaris, herbicidal effect grade (Digitaria ciliaris [3]): 5 (Herbicidal ratio of 90% or more (almost completely withered))
H: Echinochloa crus-galli var. crus-galli, herbicidal effect grade [4]: 5 (Herbicidal ratio of 90% or more (almost completely withered))
K: Lolium multiflorum Lam., herbicidal effect grade (Lolium multiflorum Lam.): 5 (Herbicidal ratio of 90% or more (almost completely withered))
L: Apera spica-venti, herbicidal effect grade (Apera spica-venti): 2 (Herbicidal ratio of 20% or higher and lower than 40%)
M: Abutilon theophrasti, herbicidal effect grade (Abutilon theophrasti): 1 (Herbicidal ratio of 5% or higher and lower than 20%)
N: Amaranthus retroflexus, herbicidal effect grade (Amaranthus retroflexus [5]): 0 (Herbicidal ratio of 5% or lower (almost no effect))
g: rapeseed, effect on crop grade (rapeseed): 3 (Herbicidal ratio of 40% or higher and lower than 70%)
F: Digitaria ciliaris, herbicidal effect grade (Digitaria ciliaris [6]): 5 (Herbicidal ratio of 90% or more (almost completely withered))
I: Avena fatua, herbicidal effect grade (Avena fatua): 5 (Herbicidal ratio of 90% or more (almost completely withered))
N: Amaranthus retroflexus, herbicidal effect grade (Amaranthus retroflexus [7]): 0 (Herbicidal ratio of 5% or lower (almost no effect))
O: Chenopodium album, herbicidal effect grade (Chenopodium album): 0 (Herbicidal ratio of 5% or lower (almost no effect))
P: Stellaria media, herbicidal effect grade (Stellaria media): 0 (Herbicidal ratio of 5% or lower (almost no effect))
R: Veronica persica, herbicidal effect grade (Veronica persica): 4 (Herbicidal ratio of 70% or higher and lower than 90%)
b: directly sowed rice plant, effect on crop grade (rice plant): 5 (Herbicidal ratio of 90% or more (almost completely withered))
e: wheat, effect on crop grade (wheat): 0 (Herbicidal ratio of 5% or lower (almost no effect))
f: beet, effect on crop grade (beet): 0 (Herbicidal ratio of 5% or lower (almost no effect))
